Reference: US4791200A, “2-substituted-4-aryl-substituted thiazoles” (Ortho Pharmaceutical Corporation, priority 1987, dated 1988)
Like-named read-outs stand apart in the source and are kept apart here.

How the values were obtained:
parietal cells = experiment: Isolated Parietal Cell Assay (14C-aminopyrine accumulation, histamine or dibutyryl cAMP stimulated); assay type: cell-based, rabbit; conditions: Oryctolagus cuniculus
Description: The isolated parietal cell assay was conducted using the procedures of Batzri, S. et al., Biochemica et Biophysica Acta 508, 328 (1978) and Soll, A. H. Am. J. Physiol. 238, G366 (1980). Basically, parietal cells were isolated from the fundic mucosa of rabbit stomachs by a four-stage collagenase digestion process. The supernatant fractions from the last two stages of this process contain the individual parietal cells. This cell suspension was centrifuged and reconstituted in a modified Hank's buffer to contain 1-2×10^6 cells/ml. […] This accumulation was stimulated by histamine and was blocked by H2 antagonists. The cells were incubated with 0.4-0.5×10^6 cpm ^14 C-AP, with various concentrations of histamine as a stimulant, 1×10^-5 M isobutylmethylxanthine, and the test compound added in a 20 μl volume of buffer or DMSO. The flasks were incubated in a shaking water bath at 37° C. for 20 minutes. Two aliquots were then taken from each flask and cell pellets were collected by centrifugation. The pellets were solubilized with Protosol (New England Nuclear) and radioactivity determined by liquid scintillation spectrometry. Data is presented as the IC50 vhist, the concentration of compound required to inhibit ^14 C-AP accumulation in the histamine stimulated parietal cell by 50%.
When dibutyryl cAMP was used to stimulate the cells instead of histamine, a similar inhibition of ^14 C-AP accumulation was measured and the data are presented as the IC50 vcAMP, the concentration required to inhibit ^14 C-AP accumulation in the cAMP stimulated parietal cell by 50%.

[1] = system: acid output (gastric secretion); experiment: Gastric Secretion (pylorus ligation, modified Shay); assay type: in vivo, male Charles River Sprague Dawley derived rats; conditions: i.d. or s.c., 4 hours after ligation; for response vs control in vivo at 40 mg/kg: at 40 mpK
Description: The inhibitory activity of the compounds on acid output was tested using pylorus ligation in a modification of the procedure of Shay, H. et al., Gastroenterology 26, 906 (1954). Basically, male Charles River Sprague Dawley derived rats weighing 150-300 grams were deprived of food but not water for 18-24 hours prior to use. Water was withheld during the experiment, however. The rats were weighed, anesthetized with ether and the pylorus ligated according to the method of Shay et al., supra. Treatment or vehicle control was then administered intraduodenally (i.d.) or subcutaneously (s.c.). Rats were housed two/cage and sacrificed with CO2 four hours after ligation. The stomachs were removed, rinsed, and contents emptied into a graduated centrifuge tube. The tubes were centrifuged, the volume of gastric juice recorded, and any samples obviously contaminated by feces, food or blood were eliminated. A 1 ml aliquot of gastric juice was titrated with 0.1N NaOH to a pH of 7.0-7.4. The volume of gastric juice secreted, the acid concentration, and the product of the volume times the concentration, i.e., the total amount of acid secreted, were measured.

[2] = target: T1, parietal cell H^+ K^+ ATPase (Oryctolagus cuniculus, UniProt P27112); experiment: Inhibition of Parietal Cell H^+ K^+ ATPase; assay type: biochemical, New Zealand white rabbits; conditions: read-out: % Inhibition at Concentration; for inhibition at 100 µM: at 10^-4 M
T1 construct: determined in fundic mucosa from New Zealand white rabbits which were homogenized; from tissue; host or cells: fundic mucosa of New Zealand white rabbits, homogenized; membrane protein
T1 sequence (P27112 2-1035 limits assumed): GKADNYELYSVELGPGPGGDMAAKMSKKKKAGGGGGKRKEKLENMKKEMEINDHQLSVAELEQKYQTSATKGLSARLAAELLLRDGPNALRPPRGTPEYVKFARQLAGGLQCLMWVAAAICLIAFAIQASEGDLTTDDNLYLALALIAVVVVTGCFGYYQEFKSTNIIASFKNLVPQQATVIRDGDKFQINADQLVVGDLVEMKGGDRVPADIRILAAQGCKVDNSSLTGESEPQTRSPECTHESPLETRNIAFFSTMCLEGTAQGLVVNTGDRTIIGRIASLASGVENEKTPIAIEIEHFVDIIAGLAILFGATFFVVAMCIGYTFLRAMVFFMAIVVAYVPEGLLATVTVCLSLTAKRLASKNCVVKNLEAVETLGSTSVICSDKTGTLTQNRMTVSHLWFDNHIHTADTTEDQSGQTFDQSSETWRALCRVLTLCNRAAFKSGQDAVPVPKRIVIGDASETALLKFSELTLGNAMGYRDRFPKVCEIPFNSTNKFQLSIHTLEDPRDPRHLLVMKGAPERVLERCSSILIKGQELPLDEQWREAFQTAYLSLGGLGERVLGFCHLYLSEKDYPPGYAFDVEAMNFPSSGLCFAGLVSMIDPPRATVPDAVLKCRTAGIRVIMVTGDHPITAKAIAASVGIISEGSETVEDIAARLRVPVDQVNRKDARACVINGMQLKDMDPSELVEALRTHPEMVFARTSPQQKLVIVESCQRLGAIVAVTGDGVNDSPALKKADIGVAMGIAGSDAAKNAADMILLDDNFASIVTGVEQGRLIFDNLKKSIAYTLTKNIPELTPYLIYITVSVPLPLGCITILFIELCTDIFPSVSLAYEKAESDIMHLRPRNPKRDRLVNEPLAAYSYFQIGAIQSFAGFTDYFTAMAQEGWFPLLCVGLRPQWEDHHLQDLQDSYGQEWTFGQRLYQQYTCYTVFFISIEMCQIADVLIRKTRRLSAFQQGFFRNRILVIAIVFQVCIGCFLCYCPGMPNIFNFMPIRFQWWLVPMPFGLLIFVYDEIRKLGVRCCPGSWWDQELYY
T1 sequence (P18597 whole entry partner): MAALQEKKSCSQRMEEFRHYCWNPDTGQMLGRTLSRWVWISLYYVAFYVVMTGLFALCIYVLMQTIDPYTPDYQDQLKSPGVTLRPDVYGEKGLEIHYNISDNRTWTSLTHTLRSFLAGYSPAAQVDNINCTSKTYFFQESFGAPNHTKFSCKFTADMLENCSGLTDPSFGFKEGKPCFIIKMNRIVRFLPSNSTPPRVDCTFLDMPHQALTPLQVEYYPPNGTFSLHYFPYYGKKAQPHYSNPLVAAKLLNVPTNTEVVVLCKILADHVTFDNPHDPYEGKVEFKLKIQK
Description: The activity was measured in a 1 ml incubation volume containing 50 mM Tris pH 7.4, 2 mM MgCl2, 2 mM Na2 ATP, with or without 20 mM KCl and vehicle control (dimethylsulfoxide) or test compound added in a 0.02 ml volume. Typically, 20-50 μg membrane protein was added and the tubes were preincubated with test compound for 10 minutes at 37° C. Substrate, Na2 ATP, was then added and the tubes were incubated for another 15 minutes at 37° C. The reaction was stopped by the addition of 1 ml 14% trichloroacetic acid and the samples were centrifuged at 2,000 ×g for 10 minutes. The amount of inorganic phosphate present in an aliquot of supernatant was determined. H^+ K^+ ATPase activity was determined after correcting for the basal (Mg^++ only) enzyme activity present in the membrane preparation.

[3] = 20 min, histamine stimulated, 37° C., 20 minutes, read-out: IC50 vhist (inhibition of 14C-AP accumulation in the histamine stimulated parietal cell)
[4] = dibutyryl cAMP stimulated, read-out: IC50 vcAMP (inhibition of 14C-AP accumulation in the cAMP stimulated parietal cell)
[5] = Rattus norvegicus, read-out: % Acid Secreted at mpK

| SMILES | IC50 (parietal cells; [3]) [µM] | IC50 (parietal cells; [4]) [µM] | inhibition at 100 µM [2] [%] | % Acid Secreted at mpK ([1]; at 20 mpK) [%] | response vs control in vivo at 40 mg/kg [1, 5] [%] | also measured |
| --- | --- | --- | --- | --- | --- | --- |
| CCCCN(CCCC)CCCOc1c(Cl)cc(-c2csc(-c3ccccc3)n2)cc1Cl [Example 22, 4-[3,5-Dichloro-4-(dibutylaminopropoxy)phenyl]-2-phenylthiazole] | 0.58 | 0.24 | 29 | 41 |  |  |
| CCCCN(CCCC)CCCOc1ccc(-c2csc(C)n2)cc1 [Example 2, 4-(4-Dibutylaminopropoxyphenyl)-2-methylthiazole] | 1.5 | 8.4 | 22 | 8 |  |  |
| CCCCN(CCCC)CCCOc1ccc(-c2csc(-c3ccccc3)n2)cc1 [Example 1, 4-(4-Dibutylaminopropoxyphenyl)-2-phenylthiazole] | 0.45 | 0.42 | 47 | 75 | 97 | response vs control in vivo at 17 mg/kg ([1]; Rattus norvegicus, at 17.0 mpK, read-out: % Acid Secreted at mpK): 50% |
| CCCCN(CCCC)CCCOc1ccc(-c2csc(-c3ccc(C(F)(F)F)cc3)n2)cc1 [Example 20, 4-(4-Dibutylaminopropoxyphenyl)-2-(4-trifluoromethylphenyl)thiazole] | 2.9 | 2 |  |  | 40 | inhibition at 10.6 µM ([2]; at 10.6 μM): 50% |
| CCCCN(CCCC)CCCOc1ccc(-c2csc(-c3ccc(C)cc3)n2)cc1 [Example 19, 4-(4-Dibutylaminopropoxyphenyl)-2-(4-methylphenyl)thiazole] | 1.5 | 3 |  | 41 |  | inhibition at 24 µM ([2]; at 24 μM): 50% |
| CCCCN(CCCC)CCCCCOc1ccc(-c2csc(-c3ccccc3)n2)cc1 [Example 15] | 0.49 | 0.86 | 58 | 54 |  |  |
| CCCCN(CCCC)CCCOc1ccc(-c2csc(-c3ccc(Cl)cc3)n2)cc1 [Example 16] | 2.1 | 1.8 | 55 | 40 |  |  |
| c1ccc(-c2nc(-c3ccc(OCCCn4cncn4)cc3)cs2)cc1 [Example 24, 4-[4-(1,2,4-Triazol-1-yl)propoxyphenyl]-2-phenylthiazole] | 10 |  | 36 |  | 83 |  |
| CCCCN(CCCC)CCCOc1ccc(-c2nc(-c3ccccc3)sc2CC)cc1 [Example 25, 5-Ethyl-4-(4-dibutylaminopropoxyphenyl)-2-phenylthiazole] | 0.34 | 0.24 | 5 | 8 |  |  |
| c1ccc(-c2nc(-c3ccc(OCCCN4CCCC4)cc3)cs2)cc1 [Example 9, 4-[4-(3-Pyrrolidino)propoxyphenyl]-2-phenylthiazole] | 0.39 | < 10 |  | 36 |  | inhibition at 32 µM ([2]; at 32 μM): 50% |
| CCCCN(CCCC)CCCOc1ccc(-c2csc(-c3ccc(OC)cc3)n2)cc1 [Example 17, 4-(4-Dibutylaminopropoxyphenyl)-2-(4-methoxyphenyl)thiazole] | 0.48 | 0.23 | 33 | 4 |  |  |
| Clc1cc(-c2csc(-c3ccccc3)n2)cc(Cl)c1OCCCn1ccnc1 [Example 23, 4-[3,5-Dichloro-4-(1H-imidazol-1-yl)propoxyphenyl]-2-phenylthiazole] | 0.4 | 0.46 |  | 33 |  | inhibition at 2.4 µM ([2]; at 2.4 μM): 50% |
| c1ccc(-c2nc(-c3ccc(OCCCCn4ccnc4)cc3)cs2)cc1 [Example 14] | 0.82 | 0.31 | 0 |  | 31 |  |
| CCCCN(CCCC)CCCOc1ccc(-c2csc(-c3cccnc3)n2)cc1 [Example 21, 4-(4-Dibutylaminopropoxyphenyl)-2-(3-pyridinyl)thiazole] | 1.65 | 0.88 |  | 19 |  | inhibition at 20 µM ([2]; at 20 μM): 50% |
| COc1ccccc1N1CCN(CCCOc2ccc(-c3csc(-c4ccccc4)n3)cc2)CC1 [Example 7, 4-[4-[4-(2-Methoxyphenyl)piperazol-1-yl]propoxyphenyl]-2-phenylthiazole] | 0.48 | 0.34 | 28 |  |  |  |

Compounds with a lower IC50 (parietal cells; [3]), results first:

| IC50 (parietal cells; [3]) [µM] | IC50 (parietal cells; [4]) [µM] | inhibition at 100 µM [2] [%] | SMILES | % Acid Secreted at mpK ([1]; at 20 mpK) [%] | response vs control in vivo at 40 mg/kg [1, 5] [%] | also measured |
| --- | --- | --- | --- | --- | --- | --- |
| 0.31 | 0.35 | 44 | CCCCN(CCCC)CCOc1ccc(-c2csc(-c3ccccc3)n2)cc1 [Example 12, 4-(4-Dibutylaminoethoxyphenyl)-2-phenylthiazole] | 41 |  |  |
| 0.26 | 0.54 | 30 | CCCCN(CCCC)CCCOc1ccc(-c2csc(-c3cc(OC)cc(OC)c3)n2)cc1 [Example 18, 4-(4-Dibutylaminopropoxyphenyl)-2-(3,5-dimethoxyphenyl)thiazole] | 17 |  |  |
| 0.23 | 0.18 | 60 | CCCN(CCC)CCCOc1ccc(-c2csc(-c3ccccc3)n2)cc1 [Example 5, 4-(4-Dipropylaminopropoxyphenyl)-2-phenylthiazole] |  | 94 |  |
| 0.3 | 0.29 | 23 | CCCCN(CCCC)CCCOc1ccc(-c2csc(-c3ccccc3)n2)cc1C [Example 26] | 64 |  |  |
| 0.12 | 0.09 |  | CCN(CC)CCCOc1ccc(-c2csc(-c3ccccc3)n2)cc1 [Example 4, 4-(4-Diethylaminopropoxyphenyl)-2-phenylthiazole] |  | 82 | inhibition at 47 µM ([2]; at 47 μM): 50% |
| 0.27 | 0.23 | 65 | CCCCN(CCCC)CCCOc1ccc(-c2nc(-c3ccccc3)sc2C)cc1 [Example 3, 4-(4-Dibutylaminopropoxyphenyl)-5-methyl-2-phenylthiazole] | 36 |  |  |
| 0.32 | 0.29 |  | c1ccc(-c2nc(-c3cccc(OCCCn4ccnc4)c3)cs2)cc1 [Example 27] | 13 |  | inhibition at 10.5 µM ([2]; at 10.5 μM): 50% |
| 0.11 | 0.05 |  | c1ccc(-c2nc(-c3ccc(OCCCN4CCCCC4)cc3)cs2)cc1 [Example 8, 4-[4-(3-Piperidino)propoxyphenyl]-2-phenylthiazole] | 46 | 92 | % Acid Secreted at mpK ([1]; at 10 mpK): 25%; inhibition at 34 µM ([2]; at 34 μM): 50% |
